According to PubChem BioAssay (NCI):
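Tested at 5 concentrations; 48 h exposure; 96-well plates; endpoints linearly interpolated, else capped at highest concentration. TGI denotes the concentration required for complete inhibition of growth.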

Assays:
Experiment in all cases: NCI anticancer screen, dose series, 48 h
[1] = system: U251 CNS
[2] = system: OVCAR-5 ovarian
[3] = system: M19-MEL melanoma
[4] = system: 786-0 renal
[5] = system: ACHN renal
[6] = system: DMS 273 small cell lung
[7] = system: HOP-62 NSCLC
[8] = system: SN12C renal
[9] = system: SK-MEL-2 melanoma
[10] = system: DMS 114 small cell lung
[11] = system: K-562 leukemia
[12] = system: SR leukemia
[13] = system: COLO 205 colon
[14] = system: SK-MEL-28 melanoma
[15] = system: UACC-62 melanoma
[16] = system: HL-60(TB) leukemia
[17] = system: LXFL 529 NSCLC
[18] = system: SF-268 CNS
[19] = system: UO-31 renal
[20] = system: HCT-116 colon
[21] = system: A549 NSCLC
[22] = system: DLD-1 colon
[23] = system: CAKI-1 renal
[24] = system: NCI-H23 lung
[25] = system: NCI-H522 lung
[26] = system: OVCAR-4 ovarian
[27] = system: OVCAR-8 ovarian
[28] = system: SF-295 CNS
[29] = system: HT29 colon
[30] = system: M14 melanoma
[31] = system: HCT-15 colon
[32] = system: NCI-H226 lung
[33] = system: EKVX NSCLC
[34] = system: MOLT-4 leukemia
[35] = system: SNB-78 CNS
[36] = system: SNB-75 CNS
[37] = system: XF 498 CNS
[38] = system: SF-539 CNS
[39] = system: UACC-257 melanoma
[40] = system: TK-10 renal
[41] = system: KM12 colon
[42] = system: OVCAR-3 ovarian
[43] = system: HCC-2998 colon
[44] = system: A498 renal
[45] = system: RPMI-8226 leukemia
[46] = system: LOX IMVI melanoma
[47] = system: NCI-H460 lung
[48] = system: SK-OV-3 ovarian
[49] = system: SNB-19 CNS
[50] = system: SW-620 colon
[51] = system: IGROV1 ovarian
[52] = system: KM20L2 colon
[53] = system: SK-MEL-5 melanoma
[54] = system: HOP-92 NSCLC
[55] = system: MALME-3M melanoma
[56] = system: RXF 393 renal
[57] = system: CCRF-CEM leukemia
[58] = system: PC-3 prostate
[59] = system: NCI/ADR-RES ovarian
[60] = system: MDA-MB-435
[61] = system: HS 578T breast
[62] = system: MDA-MB-231 breast
[63] = system: T-47D breast
[64] = system: MCF7 breast
[65] = system: MDA-N
[66] = system: BT-549 breast
[67] = system: DU-145 prostate

O=C(NCCOC(=O)CCCCCCCCC(=O)OCCNC(=O)NC(=O)c1cn(Cc2ccccc2)c(=O)[nH]c1=O)NC(=O)c1cn(Cc2ccccc2)c(=O)[nH]c1=O
TGI [1]: > 100 µM | TGI [2]: > 100 µM | TGI [3]: > 100 µM | TGI [4]: > 100 µM | TGI [5]: > 100 µM | TGI [6]: > 100 µM | TGI [7]: > 100 µM | TGI [8]: > 100 µM | TGI [9]: > 100 µM | TGI [10]: > 100 µM | TGI [11]: > 100 µM | TGI [12]: > 100 µM | TGI [13]: > 100 µM | TGI [14]: > 100 µM | TGI [15]: > 100 µM | TGI [16]: > 100 µM | TGI [17]: > 100 µM | TGI [18]: > 100 µM | TGI [19]: > 100 µM | TGI [20]: > 100 µM | TGI [21]: > 100 µM | TGI [22]: > 100 µM | TGI [23]: > 100 µM | TGI [24]: > 100 µM | TGI [25]: > 100 µM | TGI [26]: > 100 µM | TGI [27]: > 100 µM | TGI [28]: > 100 µM | TGI [29]: > 100 µM | TGI [30]: > 100 µM | TGI [31]: > 100 µM | TGI [32]: > 100 µM | TGI [33]: > 100 µM | TGI [34]: > 100 µM | TGI [35]: > 100 µM | TGI [36]: > 100 µM | TGI [37]: > 100 µM | TGI [38]: > 100 µM | TGI [39]: > 100 µM | TGI [40]: > 100 µM | TGI [41]: > 100 µM | TGI [42]: > 100 µM | TGI [43]: > 100 µM | TGI [44]: > 100 µM | TGI [45]: > 100 µM | TGI [46]: > 100 µM | TGI [47]: > 100 µM | TGI [48]: > 100 µM | TGI [49]: > 100 µM | TGI [50]: > 100 µM | TGI [51]: > 100 µM | TGI [52]: > 100 µM | TGI [53]: > 100 µM

COc1cc(CNc2nc3c(NC(C)=O)cc(C(F)(F)F)cc3nc2-c2ccccc2)cc(OC)c1OC
TGI [2]: > 100 µM | TGI [3]: > 100 µM | TGI [5]: > 100 µM | TGI [6]: > 100 µM | TGI [7]: > 100 µM | TGI [8]: > 100 µM | TGI [9]: > 100 µM | TGI [10]: > 100 µM | TGI [11]: > 100 µM | TGI [12]: > 100 µM | TGI [13]: > 100 µM | TGI [14]: > 100 µM | TGI [15]: > 100 µM | TGI [17]: > 100 µM | TGI [18]: > 100 µM | TGI [19]: > 100 µM | TGI [20]: > 100 µM | TGI [21]: > 100 µM | TGI [22]: > 100 µM | TGI [23]: > 100 µM | TGI [54]: > 100 µM | TGI [25]: > 100 µM | TGI [26]: > 100 µM | TGI [27]: > 100 µM | TGI [28]: > 100 µM | TGI [31]: > 100 µM | TGI [32]: > 100 µM | TGI [55]: > 100 µM | TGI [33]: > 100 µM | TGI [34]: > 100 µM | TGI [37]: > 100 µM | TGI [56]: > 100 µM | TGI [38]: > 100 µM | TGI [40]: > 100 µM | TGI [41]: > 100 µM | TGI [42]: > 100 µM | TGI [43]: > 100 µM | TGI [45]: > 100 µM | TGI [46]: > 100 µM | TGI [57]: > 100 µM | TGI [48]: > 100 µM | TGI [49]: > 100 µM | TGI [50]: > 100 µM | TGI [51]: > 100 µM | TGI [52]: > 100 µM | TGI [53]: > 100 µM

COc1cc(OC)c(OC)cc1/C=C\c1ccnc2ccccc12
TGI [58]: > 100 µM | TGI [1]: 16.5 µM | TGI [2]: > 100 µM | TGI [3]: > 100 µM | TGI [4]: 61.6 µM | TGI [5]: > 100 µM | TGI [7]: > 62.1 µM | TGI [8]: > 100 µM | TGI [9]: 7.4 µM | TGI [11]: 31.3 µM | TGI [12]: > 100 µM | TGI [13]: 3.86 µM | TGI [59]: 12.1 µM | TGI [14]: > 100 µM | TGI [15]: > 67.9 µM | TGI [16]: 5 µM | TGI [17]: > 100 µM | TGI [18]: > 86.2 µM | TGI [19]: > 80.6 µM | TGI [20]: 54.8 µM | TGI [21]: > 72.6 µM | TGI [22]: > 100 µM | TGI [23]: > 79.5 µM | TGI [24]: 23.5 µM | TGI [54]: 45 µM | TGI [60]: 0.534 µM | TGI [25]: 4.25 µM | TGI [61]: 1.15 µM | TGI [26]: > 100 µM | TGI [27]: > 100 µM | TGI [28]: 3.55 µM | TGI [62]: 28.8 µM | TGI [29]: 16.1 µM | TGI [30]: 38.9 µM | TGI [31]: > 100 µM | TGI [32]: 30.2 µM | TGI [55]: > 100 µM | TGI [33]: > 46.3 µM | TGI [34]: > 90.2 µM | TGI [35]: > 100 µM | TGI [36]: 2.51 µM | TGI [63]: > 100 µM | TGI [64]: > 100 µM | TGI [56]: 5.28 µM | TGI [38]: 1.32 µM | TGI [39]: > 100 µM | TGI [40]: 31.4 µM | TGI [41]: > 67.5 µM | TGI [42]: 7.44 µM | TGI [43]: 17.8 µM | TGI [44]: 5.64 µM | TGI [45]: 99.1 µM | TGI [46]: > 42.5 µM | TGI [65]: 0.791 µM | TGI [47]: 37.3 µM | TGI [57]: 67.8 µM | TGI [48]: 9.68 µM | TGI [49]: > 74.5 µM | TGI [50]: > 63.1 µM | TGI [66]: > 100 µM | TGI [51]: > 72.9 µM | TGI [52]: 6.86 µM | TGI [67]: > 100 µM | TGI [53]: 19.7 µM

O=C(/C=N/O)Nc1cccc(Cl)c1I
TGI [1]: > 100 µM | TGI [2]: > 100 µM | TGI [3]: > 100 µM | TGI [4]: > 100 µM | TGI [5]: > 100 µM | TGI [6]: > 100 µM | TGI [7]: > 100 µM | TGI [8]: > 100 µM | TGI [9]: > 100 µM | TGI [10]: 79.2 µM | TGI [11]: > 100 µM | TGI [12]: > 100 µM | TGI [13]: > 100 µM | TGI [14]: > 100 µM | TGI [15]: > 100 µM | TGI [16]: > 100 µM | TGI [17]: > 100 µM | TGI [18]: > 100 µM | TGI [19]: 78.3 µM | TGI [20]: > 100 µM | TGI [21]: > 100 µM | TGI [22]: > 100 µM | TGI [23]: > 100 µM | TGI [24]: > 100 µM | TGI [25]: > 100 µM | TGI [26]: > 100 µM | TGI [27]: > 100 µM | TGI [28]: > 100 µM | TGI [29]: > 100 µM | TGI [30]: > 100 µM | TGI [31]: > 100 µM | TGI [32]: > 100 µM | TGI [55]: > 100 µM | TGI [33]: 79.4 µM | TGI [34]: > 100 µM | TGI [36]: 43.4 µM | TGI [37]: > 100 µM | TGI [56]: 74.9 µM | TGI [39]: > 100 µM | TGI [40]: > 100 µM | TGI [41]: > 100 µM | TGI [42]: > 100 µM | TGI [43]: > 100 µM | TGI [44]: > 100 µM | TGI [45]: > 100 µM | TGI [46]: > 100 µM | TGI [47]: > 100 µM | TGI [57]: > 100 µM | TGI [48]: > 100 µM | TGI [49]: > 100 µM | TGI [50]: > 100 µM | TGI [51]: > 100 µM | TGI [52]: > 100 µM | TGI [53]: > 100 µM
